Results published in ChEMBL document CHEMBL1201862, “PubChem BioAssay data set” (2004).
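Each compound was tested at five concentrations against cells in 96-well plates for 48 hours. GI50: concentration for 50% inhibition of growth.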 Active and inactive are the calls of the source. No stated cut-off is given here; in the data, active = GI50 up to about 1.1 µM and inactive = higher.

What was measured:
Assay in all cases: DTP human tumour cell line panel, 48 h
ACHN = test system: ACHN
CCRF-CEM = test system: CCRF-CEM
COLO 205 = test system: COLO 205
EKVX = test system: EKVX
HCT-116 = test system: HCT-116
K562 = test system: K562
LOX IMVI = test system: LOX IMVI
MDA-MB-231 = test system: MDA-MB-231
MDA-N = test system: MDA-N
Malme-3M = test system: Malme-3M
NCI-H226 = test system: NCI-H226
NCI/ADR-RES = test system: NCI/ADR-RES
OVCAR-5 = test system: OVCAR-5
OVCAR-8 = test system: OVCAR-8
SK-MEL-5 = test system: SK-MEL-5
SK-OV-3 = test system: SK-OV-3
SN12C = test system: SN12C
TK-10 = test system: TK-10
UACC-257 = test system: UACC-257
UO-31 = test system: UO-31

SMILES	GI50 (ACHN)	GI50 (CCRF-CEM)	GI50 (COLO 205)	GI50 (EKVX)	GI50 (HCT-116)	GI50 (K562)	GI50 (LOX IMVI)	GI50 (MDA-MB-231)	GI50 (MDA-N)	GI50 (Malme-3M)	GI50 (NCI-H226)	GI50 (NCI/ADR-RES)	GI50 (OVCAR-5)	GI50 (OVCAR-8)	GI50 (SK-MEL-5)	GI50 (SK-OV-3)	GI50 (SN12C)	GI50 (TK-10)	GI50 (UACC-257)	GI50 (UO-31)
NC(=O)NOCC1NC(=O)NC1=O (stereo not given)	> 100 µM (inactive)	4.16 µM (inactive)	> 100 µM (inactive)	> 100 µM (inactive)	> 100 µM (inactive)	> 100 µM (inactive)	> 100 µM (inactive)	> 100 µM (inactive)	> 100 µM (inactive)	> 100 µM (inactive)	> 100 µM (inactive)	> 100 µM (inactive)	> 100 µM (inactive)	> 100 µM (inactive)	> 100 µM (inactive)	> 100 µM (inactive)	> 100 µM (inactive)	> 100 µM (inactive)	> 100 µM (inactive)	> 100 µM (inactive)
CN(C)c1ccc(C(Cc2ccccc2)C2NC(=S)NC2=O)cc1 (stereo not given)	> 100 µM (inactive)	> 100 µM (inactive)	> 100 µM (inactive)	> 100 µM (inactive)	> 100 µM (inactive)	31.1 µM (inactive)	> 100 µM (inactive)	> 100 µM (inactive)	> 100 µM (inactive)	> 74.8 µM (inactive)	> 100 µM (inactive)	> 100 µM (inactive)	> 100 µM (inactive)	> 100 µM (inactive)	> 100 µM (inactive)	76.9 µM (inactive)	> 100 µM (inactive)	> 100 µM (inactive)	> 100 µM (inactive)	> 100 µM (inactive)
O=C1OC(C2=CC(=O)c3ccccc3C2=O)C(Cl)=C1Cl (stereo not given)	15.8 µM (inactive)	20 µM (inactive)	35 µM (inactive)	37.8 µM (inactive)	32.4 µM (inactive)	32.7 µM (inactive)	20.2 µM (inactive)	11.6 µM (inactive)	39.5 µM (inactive)	26.5 µM (inactive)	27.2 µM (inactive)	31.5 µM (inactive)	36.3 µM (inactive)	13.7 µM (inactive)	31.1 µM (inactive)	79.6 µM (inactive)	18.3 µM (inactive)	66.7 µM (inactive)	77.8 µM (inactive)	13.7 µM (inactive)
C/C(=N\NC(=[Se])N(C)C)c1ccccn1	< 0.01 µM (active)	< 0.01 µM (active)	< 0.01 µM (active)	0.0703 µM (active)	< 0.01 µM (active)	< 0.01 µM (active)	< 0.01 µM (active)	0.0131 µM (active)	1.89 µM (inactive)	0.47 µM (active)	0.0973 µM (active)	< 0.01 µM (active)	0.103 µM (active)	< 0.01 µM (active)	0.0263 µM (active)	0.0216 µM (active)	0.0143 µM (active)	1.87 µM (inactive)	< 0.01 µM (active)	0.457 µM (active)
CN(C)/C=N/n1c2ccccc2c2ccccc21	> 100 µM (inactive)	> 100 µM (inactive)	83.6 µM (inactive)	> 100 µM (inactive)	> 100 µM (inactive)	> 100 µM (inactive)	> 100 µM (inactive)	> 100 µM (inactive)	> 100 µM (inactive)	50.1 µM (inactive)	> 100 µM (inactive)	> 100 µM (inactive)	> 100 µM (inactive)	> 100 µM (inactive)	> 100 µM (inactive)	> 100 µM (inactive)	> 100 µM (inactive)	> 100 µM (inactive)	> 100 µM (inactive)	> 100 µM (inactive)
c1ccc2[nH]c3nc4ccccc4c-3cc2c1	0.113 µM (active)	0.197 µM (active)	0.207 µM (active)	0.395 µM (active)	< 0.0311 µM (active)	0.189 µM (active)	0.18 µM (active)	1.24 µM (inactive)	0.641 µM (active)	0.92 µM (active)	1.02 µM (active)	1.28 µM (inactive)	1.69 µM (inactive)	0.363 µM (active)	0.698 µM (active)	0.839 µM (active)	0.63 µM (active)	1.54 µM (inactive)	0.637 µM (active)	0.597 µM (active)
C/C=C(/C)C(=O)O[C@@H]1CCN2CC[C@H](COC(=O)/C(=C/C)CO)C12 (stereo not given in full)	> 100 µM (inactive)	37.7 µM (inactive)	20.6 µM (inactive)	> 100 µM (inactive)	48.8 µM (inactive)	11.2 µM (inactive)	61.8 µM (inactive)	> 100 µM (inactive)	39.2 µM (inactive)	32 µM (inactive)	> 100 µM (inactive)	> 100 µM (inactive)	> 100 µM (inactive)	> 100 µM (inactive)	26.9 µM (inactive)	> 100 µM (inactive)	> 100 µM (inactive)	> 100 µM (inactive)	> 53.8 µM (inactive)	> 87.7 µM (inactive)
O=C1Cc2c(-c3ccccc3)cc(-c3ccc(Cl)cc3)nc2-c2ccccc2N1	2.4 µM (inactive)	5.97 µM (inactive)	2.96 µM (inactive)	6.92 µM (inactive)	1.98 µM (inactive)	19 µM (inactive)	6.22 µM (inactive)	4.13 µM (inactive)	6.9 µM (inactive)	5.02 µM (inactive)	3.07 µM (inactive)	3.14 µM (inactive)	11 µM (inactive)	2.37 µM (inactive)	3.65 µM (inactive)	2.39 µM (inactive)	3.33 µM (inactive)	3.41 µM (inactive)	14.2 µM (inactive)	2.05 µM (inactive)
CC(=O)NC(CS/N=N/c1[nH]cnc1C(N)=O)C(=O)O (stereo not given)	6.27 µM (inactive)	2.14 µM (inactive)	7.24 µM (inactive)	54.5 µM (inactive)	5.5 µM (inactive)	0.791 µM (active)	0.343 µM (active)	2.2 µM (inactive)	5.05 µM (inactive)	2.16 µM (inactive)	2.51 µM (inactive)	3.04 µM (inactive)	> 76.2 µM (inactive)	2.06 µM (inactive)	27 µM (inactive)	2.15 µM (inactive)	3.21 µM (inactive)	1.75 µM (inactive)	39.3 µM (inactive)	2.82 µM (inactive)
O=C1OC(C2Cc3ccc4c(c3C2=O)CCC4)c2ccccc21 (stereo not given)	38.2 µM (inactive)	46.9 µM (inactive)	20.7 µM (inactive)	51.2 µM (inactive)	45.6 µM (inactive)	43.3 µM (inactive)	34.9 µM (inactive)	> 100 µM (inactive)	40.3 µM (inactive)	94.4 µM (inactive)	26.1 µM (inactive)	48.2 µM (inactive)	85.9 µM (inactive)	56.9 µM (inactive)	43.1 µM (inactive)	> 100 µM (inactive)	36 µM (inactive)	> 100 µM (inactive)	46.8 µM (inactive)	45.4 µM (inactive)
